Data from ChEMBL document CHEMBL1158284, “Biological activities of the nortropane alkaloid, calystegine B2, and analogs: structure-function relationships” (J Nat Prod, 1996).
The source made the active and inactive calls. The rule behind the calls is not given here.

Tests used:
[1] = test system: Sinorhizobium meliloti; experiment: Antibacterial activity against Cac gene-deficient Rhizobium meliloti GMI13; assay type: functional, organism-based
[2] = test system: Medicago sativa; experiment: Allellopathic effect in Medicago sativa assessed as reduction in root elongation at 5 mM after 43 hrs; assay type: functional; design: scale not given: the % may be the effect or the level left
[3] = test system: Medicago sativa; experiment: Allellopathic effect in Medicago sativa assessed as reduction in root elongation at 5 mM after 19 hrs; assay type: functional; design: scale not given: the % may be the effect or the level left
[4] = test system: Medicago sativa; experiment: Allellopathic effect in Medicago sativa assessed as reduction in root elongation at 10 mM after 43 hrs; assay type: functional; design: scale not given: the % may be the effect or the level left
[5] = test system: Medicago sativa; experiment: Allellopathic effect in Medicago sativa assessed as reduction in root elongation at 10 mM after 19 hrs; assay type: functional; design: scale not given: the % may be the effect or the level left
[6] = test system: Aspergillus niger; experiment: Inhibition of Aspergillus niger alpha-galactosidase 1.0 mg/mL
[7] = test system: Sinorhizobium meliloti; experiment: Antibacterial activity against Cac gene-deficient Rhizobium meliloti RCR2011; assay type: functional, organism-based
[8] = test system: Medicago sativa; experiment: Allellopathic effect in Medicago sativa assessed as inhibition of seed germination up to 10 mM; assay type: functional, organism-based
[9] = test system: Prunus dulcis; experiment: Inhibition of almond beta-glucosidase at 0.5 mg/mL
[10] = test system: Agrobacterium tumefaciens; experiment: Antibacterial activity against Cac gene-deficient Agrobacterium tumefaciens C58C1; assay type: functional, organism-based
[11] = test system: Agrobacterium rhizogenes; experiment: Antibacterial activity against Cac gene-deficient Agrobacterium rhizogenes HRI; assay type: functional, organism-based
[12] = test system: Medicago sativa; experiment: Allellopathic effect in Medicago sativa assessed as inhibition of seed germination at 5 mM; assay type: functional
[13] = (§1) Inhibition of Aspergillus niger alpha-galactosidase
[14] = test system: Sinorhizobium meliloti; experiment: Induction of Cac gene-expressing Rhizobium meliloti 41 growth; assay type: functional, organism-based
[15] = (§2) Inhibition of almond beta-glucosidase; design: species or system Prunus dulcis
[16] = test system: Aspergillus niger; experiment: as §1
[17] = test system: Prunus dulcis; experiment: as §2

SMILES	Activity [1]	Activity [2]	Activity [3]	Activity [4]	Activity [5]	Activity [6]	Activity [7]	Activity [8]	Activity [9]	Activity [10]	Activity [11]	inhibition at 5000 µM [12]	Ki [13]	Activity [14]	Ki [15]	Activity [16]	Activity [17]
O[C@H]1[C@H](O)[C@H](O)[C@@]2(O)CC[C@@H]1N2	inactive	8%	20%	18%	25%	inactive	inactive	inactive	inactive	inactive	inactive						
O[C@@H]1[C@@H](O)[C@H](O)[C@]2(O)CC[C@H]1N2 [CALYSTEGINE B2]	inactive	12%	37%	40%	46%		inactive			inactive	inactive	50%	7 µM	Active	4 µM		
CN1[C@@H]2CC[C@@]1(O)[C@@H](O)[C@H](O)[C@H]2O																Active	inactive
